Experimental data published in patent US20080274987A1, “Novel alpha glucosidase activator, pulicarside 1” (HEJ Research Institute, priority 2006, published 2008).
Read-outs that look alike come from different tables or passages of the source.

Legend:
[1] = target: α-glucosidase (E.C.3.2.1.20); assay: α-Glucosidase enzyme inhibition assay (PNP-G substrate, spectrophotometric); assay type: biochemical, Saccharomyces species
Procedure: (§1) α-Glucosidase (E.C.3.2.1.20) enzyme inhibition assay was performed according to the slightly modified method of Matsui et al. α-glucosidase (E.C.3.2.1.20) from Saccharomyces species, purchased from Wako Pure Chemical Industries Ltd. (Wako 076-02841). The enzyme inhibition was measured spectrophotometrically at pH 6.9 and at 37° C. using 0.7 mM p nitrophenyl-α-D-glucopyranoside (PNP-G) as a substrate and 500 m units/mL enzyme, in 50 mM sodium phosphate buffer containing 100 mM NaCl. […] The increment in absorption at 400 nm, due to the hydrolysis of PNP-G by α-glucosidase, was monitored continuously on microplate spectrophotometer (Spectra Max Molecular Devices, USA).
[T. Matsui, C. Yoshimoto, K. Osajima, T. Oki, and Y. Osajima. Biosci. Biotech. Biochem., 1996, 60, 2019].

α-glucosidase = assay: Rate of α-glucosidase enzyme reaction as a function of incubation time and concentration of Compound 1; assay type: biochemical, Saccharomyces species
Procedure: as §1
Several unique observations were made during the studies conducted on Compound 1 activity. For example, it was observed that the enzyme generally looses its activity during the operational period. We have a set of experiment to see how the enzyme lost its activity with almost all activity gone within one hour. (Table 2).
As a result we conclude that the activity of Compound 1 is concentration dependent. The mechanism postulated here includes enhancement of stability of the enzyme to react with the substrate, which is not observed in negative control in the absence of this compound 1. From the structures it is clearly evidenced that the methylene-dioxy ring and as well as the sugar molecule is responsible for the enzyme activation. […] So the COO— group is playing a crucial role for the inhibitory effect on the enzyme and the gugar molecule and methylene-dioxy ring is responsible for the activation of the enzyme.

[2] = against α-glucosidase, pH 6.9, 37° C., 0.7 mM PNP-G, read-out: IC50 ± SEM
[3] = unit inferred, read-out: IC50 (inhibitory effect on the enzyme)

Row | SMILES | IC50 [1, 2] [µM] | IC50 [1, 3] [µM] | IC50 ± SEM ([1]; against α-glucosidase, pH 6.9, 37° C., 0.7 mM PNP-G) | Rate of enzyme reaction (μM of alpha-glucose from the p-nitrophenyl at 400 nm) (α-glucosidase; 0.05 mM Compound 1, incubation 4 min) [µM] | Rate of enzyme reaction (μM of alpha-glucose from the p-nitrophenyl at 400 nm) (α-glucosidase; 0.05 mM Compound 1, incubation 24 min) [µM] | Rate of enzyme reaction (μM of alpha-glucose from the p-nitrophenyl at 400 nm) (α-glucosidase; 0.05 mM Compound 1, incubation 45 min) [µM] | Rate of enzyme reaction (μM of alpha-glucose from the p-nitrophenyl at 400 nm) (α-glucosidase; 0.05 mM Compound 1, incubation 66 min) [µM] | Rate of enzyme reaction (μM of alpha-glucose from the p-nitrophenyl at 400 nm) (α-glucosidase; 0.10 mM Compound 1, incubation 4 min) [µM] | Rate of enzyme reaction (μM of alpha-glucose from the p-nitrophenyl at 400 nm) (α-glucosidase; 0.10 mM Compound 1, incubation 24 min) [µM] | Rate of enzyme reaction (μM of alpha-glucose from the p-nitrophenyl at 400 nm) (α-glucosidase; 0.10 mM Compound 1, incubation 45 min) [µM] | Rate of enzyme reaction (μM of alpha-glucose from the p-nitrophenyl at 400 nm) (α-glucosidase; 0.10 mM Compound 1, incubation 66 min) [µM] | Rate of enzyme reaction (μM of alpha-glucose from the p-nitrophenyl at 400 nm) (α-glucosidase; 0.20 mM Compound 1, incubation 4 min) [µM] | Rate of enzyme reaction (μM of alpha-glucose from the p-nitrophenyl at 400 nm) (α-glucosidase; 0.20 mM Compound 1, incubation 24 min) [µM] | Rate of enzyme reaction (μM of alpha-glucose from the p-nitrophenyl at 400 nm) (α-glucosidase; 0.20 mM Compound 1, incubation 45 min) [µM] | Rate of enzyme reaction (μM of alpha-glucose from the p-nitrophenyl at 400 nm) (α-glucosidase; 0.20 mM Compound 1, incubation 66 min) [µM] | Rate of enzyme reaction (μM of alpha-glucose from the p-nitrophenyl at 400 nm) (α-glucosidase; 0.40 mM Compound 1, incubation 4 min) [µM] | Rate of enzyme reaction (μM of alpha-glucose from the p-nitrophenyl at 400 nm) (α-glucosidase; 0.40 mM Compound 1, incubation 24 min) [µM] | Rate of enzyme reaction (μM of alpha-glucose from the p-nitrophenyl at 400 nm) (α-glucosidase; 0.40 mM Compound 1, incubation 45 min) [µM] | Rate of enzyme reaction (μM of alpha-glucose from the p-nitrophenyl at 400 nm) (α-glucosidase; 0.40 mM Compound 1, incubation 66 min) [µM] | Effect on α-glucosidase enzymatic activity as compared to the negative control (α-glucosidase; at all the concentrations and time intervals)
1 | C[C@@]12CCC[C@@](C)(C(=O)O)[C@H]1CC[C@@]13C[C@@H](CC[C@H]12)[C@@](O)(CO)C3 (single isomer, unassigned; ent-16) [ent-16,17-dihydroxy-(−)-kauran-19-oic acid] | 62.2 | 62.2 ± 0.008 | – | – | – | – | – | – | – | – | – | – | – | – | – | – | – | – | – | –
2 | C[C@@]12CCC[C@@](C)(C(=O)O[C@@H]3O[C@H](CO)[C@@H](O)[C@H](O)[C@H]3O)[C@H]1CC[C@@]13C[C@@H](CC[C@H]12)[C@@](O)(CO)C3 [Paniculoside IV (2), paniculoside IV] | 407 ± 20 | 407 ± 20 | – | – | – | – | – | – | – | – | – | – | – | – | – | – | – | – | – | –
3 | CC1(C)OCC2(C[C@@]34CC[C@H]5[C@@](C)(CCC[C@@]5(C)C(=O)O[C@@H]5O[C@H](CO)[C@@H](O)[C@H](O)[C@H]5O)[C@@H]3CC[C@@H]2C4)O1 (single isomer, unassigned; ent-16) [Pulicarside (1), β-D-glucopyranosyl ent-16,17-acetonyl-(−)-kauran-19-oate] | – | – | Enhancer | 18.61 | 8.7 | 3.85 | 1.45 | 19.94 | 10.38 | 4.64 | 1.62 | 20.89 | 18.27 | 13.11 | 10.13 | 21.15 | 19.68 | 14.8 | 15.01 | enhanced the enzymatic activity
